According to PMC9812224, “Analysis of the conformational heterogeneity of the Rieske iron–sulfur protein in complex III2 by cryo-EM” (IUCrJ, 2023):

Molecular target: T1, CIII2 (respiratory complex III dimer, cytochrome bc1 complex) (Yarrowia lipolytica, UniProt Q9B6D0)
T1 construct: gene COB; native homodimeric complex from DDM-solubilized mitochondrial membranes after depletion of His-tagged complex I; untagged; ion exchange and size exclusion; with Cytochrome c1, heme protein, mitochondrial; Cytochrome b-c1 complex subunit 1, mitochondrial; Cytochrome b-c1 complex subunit 2, mitochondrial; Cytochrome b-c1 complex subunit 6; Cytochrome b-c1 complex subunit 7; Cytochrome b-c1 complex subunit 8; Cytochrome b-c1 complex subunit 9; Cytochrome b-c1 complex subunit 10
T1 sequence (Q9B6D0 1-385): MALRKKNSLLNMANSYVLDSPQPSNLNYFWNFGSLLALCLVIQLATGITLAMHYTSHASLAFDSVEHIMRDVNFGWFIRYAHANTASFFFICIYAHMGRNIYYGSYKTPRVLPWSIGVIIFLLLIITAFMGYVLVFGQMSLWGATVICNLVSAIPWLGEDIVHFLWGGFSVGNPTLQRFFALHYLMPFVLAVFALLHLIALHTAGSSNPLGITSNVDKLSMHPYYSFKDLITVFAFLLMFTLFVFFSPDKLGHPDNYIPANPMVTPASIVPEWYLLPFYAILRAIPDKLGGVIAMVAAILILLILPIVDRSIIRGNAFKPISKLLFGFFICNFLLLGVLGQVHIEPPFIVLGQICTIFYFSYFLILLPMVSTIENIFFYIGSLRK
Test: cryo-EM structure
Assay type: binding
Settings: pH 8.0

SMILES: CCCCCCCCCCc1c(C)c(O)c(OC)c(OC)c1O [decylubiquinol]
- cryo-EM structure (Qi site (cyt b only), 1 mM, substrate analogue): After its addition, decylubiquinol was resolved in the Qi site

SMILES: CCCCCCCCCCC1=C(C)C(=O)C(OC)=C(OC)C1=O [decylubiquinone]
- cryo-EM structure (Qo site, possible low occupancy, 330 µM with 25 mM sodium ascorbate, quinone analogue): density in the Qo site increased, indicating a possible low occupancy of DQ

SMILES: O=C1C(O)=C([C@H]2CC[C@H](c3ccc(Cl)cc3)CC2)C(=O)c2ccccc21 [atovaquone]
- cryo-EM structure (Qo site (cyt b; hydrogen bond to His190 of Rip1), with antimycin A, 120 µM): Atovaquone was resolved in the Qo site in the +atovaquone+antimycin A sample
